pIC50: −log10 of the molar value. In brackets after ≈: the same amount, converted by molar mass. Like-named read-outs stand apart in the source and are kept apart here.
Assays:
Strain 904 = test: Antifungal activity against fluconazole-resistant strain; format: cell-based, Candida albicans; settings: Candida albicans, 904, read-out: MIC80 Strain 904
MRC-5 cells = test: Cytotoxicity assay on normal cells; format: cell-based, human; settings: read-out: IC50 on MRC-5 cell lines
C. alb (SC5314) = test: In vitro antifungal assay; format: cell-based; settings: Candida albicans, SC5314, read-out: MIC80 C. alb (SC5314)
Strain CaR = test: Antifungal activity against fluconazole-resistant strain; format: cell-based; settings: Candida albicans, read-out: MIC80 Strain CaR
Strain 901 = test: as above; format: cell-based; settings: Candida albicans, 901, read-out: MIC80 Strain 901
Strain 632 = test: as above; format: cell-based; settings: Candida albicans, 632, read-out: MIC80 Strain 632
C. neo = test: In vitro antifungal assay; format: cell-based; settings: Cryptococcus neoformans, read-out: MIC80 C. neo
[1] = system: ERG11 and CDR1 of azole-resistant strain 904; test: RT-PCR expression of resistant genes ERG11 and CDR1; format: cell-based, Candida albicans; settings: 0.25 μg mL^−1, strain 904, RT-PCR
Strain 17# = test: Antifungal activity against fluconazole-resistant strain; format: cell-based; settings: Candida albicans, read-out: MIC80 Strain 17#
[2] = system: C. alb (5314),C. par, C. gla, C. kru and C. neo; test: In vitro antifungal assay, span over the five tested species; format: cell-based; settings: range over C. alb (5314)
Plasma stability assay = settings: male, SD, rat
[3] = Metabolic stability assay of liver microsomes; format: in vitro ADME; settings: mouse

SMILES | MIC80 (Strain 904) [µg/mL] | pIC50 (MRC-5 cells; Homo sapiens, MRC5, 72 h) | MIC80 (C. alb (SC5314)) [µg/mL] | MIC80 (Strain CaR) [µg/mL] | MIC80 (Strain 901) [µg/mL] | MIC80 (Strain 632) [µg/mL] | MIC80 (C. neo) [µg/mL] | Expression of ERG11 and CDR1 [1] | MIC80 (Strain 17#) [µg/mL] | MIC80 / MIC span over the five tested fungi [2] [µg/mL] | half-life (Plasma stability assay) [min] | remaining at 3 h (Plasma stability assay) [%] | half-life [3] [min] | microsomal CLint [3] [µL/min/mg] | pIC50 (MRC-5 cells; 72 hours)
O=C(Nc1ccccc1)c1ccc(COC(Cn2ccnc2)c2ccc(Cl)cc2Cl)cc1 (stereo not shown) [A01, 4-((1-(2,4-dichlorophenyl)-2-(1H-imidazol-1-yl)ethoxy)methyl)-N-phenylbenzamide] | 0.5 (≈ 1.07 µM) | < 4.00 | 0.125 (≈ 0.268 µM) | 4 (≈ 8.58 µM) | 2 (≈ 4.29 µM) | 4 (≈ 8.58 µM) | 0.25 (≈ 0.536 µM) | reduced to basic levels | 8 (≈ 17.2 µM) | – | – | – | – | – | –
O=C(Nc1ccc(F)cc1)c1ccc(COC(Cn2ccnc2)c2ccc(Cl)cc2Cl)cc1 (stereo not shown) [A02, 4-((1-(2,4-Dichlorophenyl)-2-(1H-imidazol-1-yl)ethoxy)methyl)-N-(4-fluorophenyl)benzamide] | 0.25 (≈ 0.516 µM) | < 4.00 | 0.125 (≈ 0.258 µM) | 8 (≈ 16.5 µM) | 4 (≈ 8.26 µM) | 4 (≈ 8.26 µM) | 0.5 (≈ 1.03 µM) | – | 8 (≈ 16.5 µM) | – | – | – | – | – | –
O=C(Nc1ccc(Cl)cc1)c1ccc(COC(Cn2ccnc2)c2ccc(Cl)cc2Cl)cc1 (stereo not shown) [A03, N-(4-Chlorophenyl)-4-((1-(2,4-dichlorophenyl)-2-(1H-imidazol-1-yl)ethoxy)methyl)benzamide] | 0.25 (≈ 0.499 µM) | < 4.00 | 0.125 (≈ 0.25 µM) | 8 (≈ 16 µM) | 2 (≈ 3.99 µM) | 4 (≈ 7.99 µM) | 0.06 (≈ 0.12 µM) | – | 16 (≈ 31.9 µM) | – | – | – | – | – | –
O=C(Nc1ccc(Br)cc1)c1ccc(COC(Cn2ccnc2)c2ccc(Cl)cc2Cl)cc1 (stereo not shown) [A04, N-(4-Bromophenyl)-4-((1-(2,4-dichlorophenyl)-2-(1H-imidazol-1-yl)ethoxy)methyl)benzamide] | 0.25 (≈ 0.458 µM) | < 4.00 | 0.06 (≈ 0.11 µM) | 4 (≈ 7.34 µM) | 2 (≈ 3.67 µM) | 4 (≈ 7.34 µM) | 0.25 (≈ 0.458 µM) | – | 16 (≈ 29.3 µM) | – | – | – | – | – | –
Cc1ccc(NC(=O)c2ccc(COC(Cn3ccnc3)c3ccc(Cl)cc3Cl)cc2)cc1 (stereo not shown) [A05, 4-((1-(2,4-Dichlorophenyl)-2-(1H-imidazol-1-yl)ethoxy)methyl)-N-(p-tolyl)benzamide] | 0.25 (≈ 0.52 µM) | < 4.00 | 0.03 (≈ 0.0624 µM) | 4 (≈ 8.33 µM) | 4 (≈ 8.33 µM) | 4 (≈ 8.33 µM) | 0.25 (≈ 0.52 µM) | – | 8 (≈ 16.7 µM) | – | – | – | – | – | –
O=C(Nc1ccc(C(F)(F)F)cc1)c1ccc(COC(Cn2ccnc2)c2ccc(Cl)cc2Cl)cc1 (stereo not shown) [A06, 4-((1-(2,4-Dichlorophenyl)-2-(1H-imidazol-1-yl)ethoxy)methyl)-N-(4-(trifluoromethyl)phenyl)benzamide] | 0.25 (≈ 0.468 µM) | < 4.00 | 0.06 (≈ 0.112 µM) | 2 (≈ 3.74 µM) | 2 (≈ 3.74 µM) | 2 (≈ 3.74 µM) | 0.125 (≈ 0.234 µM) | – | 16 (≈ 29.9 µM) | – | – | – | – | – | –
COc1ccc(NC(=O)c2ccc(COC(Cn3ccnc3)c3ccc(Cl)cc3Cl)cc2)cc1 (stereo not shown) [A07, 4-((1-(2,4-Dichlorophenyl)-2-(1H-imidazol-1-yl)ethoxy)methyl)-N-(4-methoxyphenyl)benzamide] | 0.25 (≈ 0.504 µM) | < 4.00 | 0.06 (≈ 0.121 µM) | 4 (≈ 8.06 µM) | 4 (≈ 8.06 µM) | 4 (≈ 8.06 µM) | 0.25 (≈ 0.504 µM) | reduced to basic levels | 4 (≈ 8.06 µM) | – | – | – | – | – | –
O=C(Nc1cccc(F)c1)c1ccc(COC(Cn2ccnc2)c2ccc(Cl)cc2Cl)cc1 (stereo not shown) [A08, 4-((1-(2,4-Dichlorophenyl)-2-(1H-imidazol-1-yl)ethoxy)methyl)-N-(3-fluorophenyl)benzamide] | 0.25 (≈ 0.516 µM) | < 4.00 | 0.06 (≈ 0.124 µM) | 4 (≈ 8.26 µM) | 2 (≈ 4.13 µM) | 4 (≈ 8.26 µM) | 0.125 (≈ 0.258 µM) | – | 16 (≈ 33 µM) | – | – | – | – | – | –
O=C(Nc1cccc(Cl)c1)c1ccc(COC(Cn2ccnc2)c2ccc(Cl)cc2Cl)cc1 (stereo not shown) [A09, N-(3-Chlorophenyl)-4-((1-(2,4-dichlorophenyl)-2-(1H-imidazol-1-yl)ethoxy)methyl)benzamide] | 0.25 (≈ 0.499 µM) | < 4.00 | 0.03 (≈ 0.0599 µM) | 8 (≈ 16 µM) | 2 (≈ 3.99 µM) | 4 (≈ 7.99 µM) | 0.125 (≈ 0.25 µM) | – | 8 (≈ 16 µM) | – | – | – | – | – | –
O=C(Nc1cccc(Br)c1)c1ccc(COC(Cn2ccnc2)c2ccc(Cl)cc2Cl)cc1 (stereo not shown) [A10, N-(3-Bromophenyl)-4-((1-(2,4-dichlorophenyl)-2-(1H-imidazol-1-yl)ethoxy)methyl)benzamide] | 0.25 (≈ 0.458 µM) | < 4.00 | 0.25 (≈ 0.458 µM) | 8 (≈ 14.7 µM) | 2 (≈ 3.67 µM) | 8 (≈ 14.7 µM) | 0.125 (≈ 0.229 µM) | – | 16 (≈ 29.3 µM) | – | – | – | – | – | –
O=C(Nc1ccc2cccnc2c1)c1ccc(COC(Cn2ccnc2)c2ccc(Cl)cc2Cl)cc1 (stereo not shown) [A12, 4-((1-(2,4-Dichlorophenyl)-2-(1H-imidazol-1-yl)ethoxy)methyl)-N-(quinolin-7-yl)benzamide] | 2 (≈ 3.87 µM) | < 4.00 | 8 (≈ 15.5 µM) | 4 (≈ 7.73 µM) | 8 (≈ 15.5 µM) | 8 (≈ 15.5 µM) | 4 (≈ 7.73 µM) | – | 8 (≈ 15.5 µM) | 2 to 64 | – | – | – | – | –
O=C(Nc1cccc2ccccc12)c1ccc(COC(Cn2ccnc2)c2ccc(Cl)cc2Cl)cc1 (stereo not shown) [A13, 4-((1-(2,4-Dichlorophenyl)-2-(1H-imidazol-1-yl)ethoxy)methyl)-N-(naphthalen-1-yl)benzamide] | 1 (≈ 1.94 µM) | < 4.00 | 8 (≈ 15.5 µM) | 128 (≈ 248 µM) | 1 (≈ 1.94 µM) | 8 (≈ 15.5 µM) | 64 (≈ 124 µM) | – | 64 (≈ 124 µM) | 2 to 64 | – | – | – | – | –
O=C(Nc1ccc2ccccc2c1)c1ccc(COC(Cn2ccnc2)c2ccc(Cl)cc2Cl)cc1 (stereo not shown) [A14, 4-((1-(2,4-Dichlorophenyl)-2-(1H-imidazol-1-yl)ethoxy)methyl)-N-(naphthalen-2-yl)benzamide] | 16 (≈ 31 µM) | < 4.00 | 32 (≈ 62 µM) | 8 (≈ 15.5 µM) | 16 (≈ 31 µM) | 16 (≈ 31 µM) | 32 (≈ 62 µM) | – | 64 (≈ 124 µM) | 2 to 64 | – | – | – | – | –
O=C(Nc1ccc2[nH]ccc2c1)c1ccc(COC(Cn2ccnc2)c2ccc(Cl)cc2Cl)cc1 (stereo not shown) [A15, 4-((1-(2,4-Dichlorophenyl)-2-(1H-imidazol-1-yl)ethoxy)methyl)-N-(1H-indol-5-yl)benzamide] | 8 (≈ 15.8 µM) | < 4.00 | 128 (≈ 253 µM) | 128 (≈ 253 µM) | 8 (≈ 15.8 µM) | 128 (≈ 253 µM) | 128 (≈ 253 µM) | – | > 128 | – | – | – | – | – | –
Clc1ccc(COC(Cn2ccnc2)c2ccc(Cl)cc2Cl)c(Cl)c1 (stereo not shown) [Miconazole, miconazole] | – | – | 0.25 (≈ 0.601 µM) | – | – | – | 0.125 (≈ 0.3 µM) | – | – | – | > 360 | 94.9 | 8.3 | 660 | –
N.N.[Cl][Pt][Cl] [cis-Pt, reference compound] | – | – | – | – | – | – | – | – | – | – | – | – | – | – | 4.11

From publication PMC11962866 (RSC Advances, 2025)
